Laboratory results published in patent US12173018B2, “Penicillin-binding protein inhibitors” (priority 2018, dated 2024).
Converted amounts (≈) assume the structure as drawn. Like-named read-outs stand apart in the source and are kept apart here.

Columns and labels:
K. pneumoniae 848844 = experiment: microbe, parasite or virus in culture; type: cell-based, Klebsiella pneumoniae; details: Klebsiella pneumoniae; K. pneumoniae 848844 producing SHV-11 and KPC-2; read-out: MIC K. pneumoniae 848844
Outline: (§1)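 CLSI broth microdilution in cation-supplemented Mueller-Hinton broth; 2-fold compound dilutions inoculated at 5×10^5 CFU/mL from a 3-5 h log-phase culture. Plates incubated 16-20 hours at 37° C; MIC read visually as lowest concentration with no growth.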

[1] = system: N. gonorrhoeae ATCC 49226; experiment: Liquid broth MIC, N. gonorrhoeae ATCC 49226; type: cell-based; details: Neisseria gonorrhoeae, ATCC49226; N. gonorrhoeae ATCC 49226, liquid broth; read-out: Minimum Inhibitory Concentration, N. gonorrhoeae ATCC 49226
Outline: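 MIC taken by eye as the lowest well lacking growth after 40-42 h at 36° C under 5% CO2. Compounds were 2-fold serially diluted; the starting inoculum of 5×10^5 CFU/mL came from direct colony suspensions grown on Kellogg's-supplemented GC agar.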

A. baumannii ATCC 19606 = experiment: Broth microdilution MIC, A. baumannii ATCC 19606; type: cell-based; details: Acinetobacter baumannii
Outline: as §1

P. aeruginosa PAO1 = experiment: Broth microdilution MIC, P. aeruginosa PAO1; type: cell-based; details: Pseudomonas aeruginosa
Outline: as §1

P. aeruginosa ATCC 35151 = experiment: microbe, parasite or virus in culture; type: cell-based; details: Pseudomonas aeruginosa, ATCC35151; hyper-permeable P. aeruginosa ATCC 35151; read-out: MIC P. aeruginosa ATCC 35151
Outline: as §1

E. coli AG100A = experiment: microbe, parasite or virus in culture; type: cell-based; details: Escherichia coli, read-out: MIC E. coli AG100A
Outline: as §1

E. coli D22 = experiment: microbe, parasite or virus in culture; type: cell-based; details: Escherichia coli; hyper-permeable E. coli D22, broth microdilution; read-out: MIC E. coli D22
Outline: as §1

E. coli 901C = experiment: microbe, parasite or virus in culture; type: cell-based; details: Escherichia coli; hyper-permeable E. coli 901C, broth microdilution; read-out: MIC E. coli 901C
Outline: as §1

[2] = system: P. aeruginosa (ΔmexAB-oprM); experiment: microbe, parasite or virus in culture; type: cell-based; details: Pseudomonas aeruginosa, read-out: MIC P. aeruginosa ΔmexAB-OprM
Outline: as §1

E. coli AG100 = experiment: Broth microdilution MIC, E. coli AG100 (wild-type parent); type: cell-based; details: Escherichia coli; wild-type parent E. coli AG100, broth microdilution; read-out: MIC E. coli AG100
Outline: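 Broth microdilution in cation-supplemented Mueller-Hinton broth, 2-fold serial compound dilutions, inoculum 5×10^5 CFU/mL from 3-5 h log culture.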

[3] = ATCC19606, A. baumannii ATCC 19606, broth microdilution, read-out: MIC A. baumannii ATCC 19606
[4] = P. aeruginosa PAO1, broth microdilution, read-out: MIC P. aeruginosa PAO1
[5] = ATCC19606, read-out: MIC A. baumannii ATCC 19606
[6] = PAO1, read-out: MIC P. aeruginosa PAO1

SMILES | MIC (K. pneumoniae 848844) | MIC [1] | MIC (A. baumannii ATCC 19606; [3]) | MIC (P. aeruginosa PAO1; [4]) | MIC (P. aeruginosa ATCC 35151) | MIC (E. coli AG100A) | MIC (E. coli D22) | MIC (E. coli 901C) | MIC [2] | MIC (E. coli AG100) | MIC (A. baumannii ATCC 19606; [5]) | MIC (P. aeruginosa PAO1; [6])
O=C(O)c1c(F)ccc2c1OB(O)[C@@H](NC(=O)C(NC(=O)N1CCN(CCF)C(=O)C1=O)c1ncc(O)cc1F)C2 (stereo partly drawn) [Example 183, (3R)-7-fluoro-3-(2-(3-fluoro-5-hydroxypyridin-2-yl)-2-(4-(2-fluoroethyl)-2,3-dioxopiperazine-1-carboxamido)acetamido)-2-hydroxy-3,4-dihydro-2H-benzo[e][1,2]oxaborinine-8-carboxylic acid] | > 128 µg/mL | 0.25 to 0.5 µg/mL (≈ 0.432 to 0.863 µM) | > 128 µg/mL | > 128 µg/mL | < 0.25 µg/mL | 2 to 4 µg/mL | 2 to 4 µg/mL | < 0.25 µg/mL | 32 to 64 µg/mL | 8 to 16 µg/mL | – | –
CCN1CCN(C(=O)N[C@H](C(=O)N[C@H]2Cc3ccc(F)c(C(=O)O)c3OB2O)c2ccc(O)c(O)c2Cl)C(=O)C1=O [Example 188, (R)-3-((S)-2-(2-chloro-3,4-dihydroxyphenyl)-2-(4-ethyl-2,3-dioxopiperazine-1-carboxamido)acetamido)-7-fluoro-2-hydroxy-3,4-dihydro-2H-benzo[e][1,2]oxaborinine-8-carboxylic acid] | 8 to 16 µg/mL | 16 to 32 µg/mL (≈ 27 to 54 µM) | 32 to 64 µg/mL | 8 to 16 µg/mL | 0.5 to 1 µg/mL | 8 to 16 µg/mL | 8 to 16 µg/mL | 2 to 4 µg/mL | 0.5 to 1 µg/mL | 8 to 16 µg/mL | – | –
CCN1CCN(C(=O)N[C@@H](C(=O)N[C@H]2Cc3ccc(F)c(C(=O)O)c3OB2O)c2ccc(O)c(O)c2Cl)C(=O)C1=O [Example 189, (R)-3-((R)-2-(2-chloro-3,4-dihydroxyphenyl)-2-(4-ethyl-2,3-dioxopiperazine-1-carboxamido)acetamido)-7-fluoro-2-hydroxy-3,4-dihydro-2H-benzo[e][1,2]oxaborinine-8-carboxylic acid] | 2 to 4 µg/mL | 1 to 2 µg/mL (≈ 1.69 to 3.37 µM) | < 0.25 µg/mL | < 0.25 µg/mL | < 0.25 µg/mL | 0.5 to 1 µg/mL | 0.5 to 1 µg/mL | 0.5 to 1 µg/mL | < 0.25 µg/mL | 2 to 4 µg/mL | – | –
CCN1CCN(C(=O)N[C@@H](C(=O)N[C@H]2Cc3cccc(C(=O)O)c3OB2O)c2ccc(O)c(O)c2Cl)C(=O)C1=O [Example 190, (R)-3-((R)-2-(2-chloro-3,4-dihydroxyphenyl)-2-(4-ethyl-2,3-dioxopiperazine-1-carboxamido)acetamido)-2-hydroxy-3,4-dihydro-2H-benzo[e][1,2]oxaborinine-8-carboxylic acid] | 0.5 to 1 µg/mL | 1 to 2 µg/mL (≈ 1.74 to 3.48 µM) | < 0.25 µg/mL | 0.5 to 1 µg/mL | < 0.25 µg/mL | < 0.25 µg/mL | 0.5 to 1 µg/mL | < 0.25 µg/mL | < 0.25 µg/mL | 0.5 to 1 µg/mL | – | –
CCN1C[C@@H](C)N(C(=O)NC(C(=O)N[C@H]2Cc3cccc(C(=O)O)c3OB2O)c2ncc(O)cc2F)C(=O)C1=O (stereo partly drawn) [Example 191, (3R)-3-(2-((R)-4-ethyl-6-methyl-2,3-dioxopiperazine-1-carboxamido)-2-(3-fluoro-5-hydroxypyridin-2-yl)acetamido)-2-hydroxy-3,4-dihydro-2H-benzo[e][1,2]oxaborinine-8-carboxylic acid] | > 128 µg/mL | > 64 µg/mL | > 128 µg/mL | > 128 µg/mL | 2 to 4 µg/mL | 8 to 16 µg/mL | 8 to 16 µg/mL | 0.5 to 1 µg/mL | 32 to 64 µg/mL | > 128 µg/mL | – | –
CCN1CCN(C(=O)NC(C(=O)N[C@H]2Cc3ccc(F)c(C(=O)O)c3OB2O)c2ccc(O)c(O)c2Cl)C(O)C1=O (stereo partly drawn) [Example 194, (3R)-3-(2-(2-chloro-3,4-dihydroxyphenyl)-2-(4-ethyl-2-hydroxy-3-oxopiperazine-1-carboxamido)acetamido)-7-fluoro-2-hydroxy-3,4-dihydro-2H-benzo[e][1,2]oxaborinine-8-carboxylic acid] | 8 to 16 µg/mL | 16 to 32 µg/mL (≈ 26.9 to 53.8 µM) | – | – | < 0.25 µg/mL | 8 to 16 µg/mL | 8 to 16 µg/mL | 8 to 16 µg/mL | 0.5 to 1 µg/mL | 8 to 16 µg/mL | 0.5 to 1 µg/mL | 8 to 16 µg/mL
NS(=O)(=O)c1ccc(C(NC(=O)N2CCN(CCF)C(=O)C2=O)C(=O)N[C@H]2Cc3cccc(C(=O)O)c3OB2O)c(F)c1 (stereo partly drawn) [Example 204, (3R)-3-(2-(2-fluoro-4-sulfamoylphenyl)-2-(4-(2-fluoroethyl)-2,3-dioxopiperazine-1-carboxamido)acetamido)-2-hydroxy-3,4-dihydro-2H-benzo[e][1,2]oxaborinine-8-carboxylic acid] | > 128 µg/mL | 1 to 2 µg/mL (≈ 1.6 to 3.21 µM) | > 128 µg/mL | > 128 µg/mL | 0.5 to 1 µg/mL | 2 to 4 µg/mL | 2 to 4 µg/mL | < 0.25 µg/mL | 8 to 16 µg/mL | 32 to 64 µg/mL | – | –
CCN1CCN(C(=O)NC(C(=O)N[C@H]2Cc3cccc(C(=O)O)c3OB2O)c2nc(N)sc2F)C(=O)C1=O (stereo partly drawn) [Example 205, (3R)-3-(2-(2-amino-5-fluorothiazol-4-yl)-2-(4-ethyl-2,3-dioxopiperazine-1-carboxamido)acetamido)-2-hydroxy-3,4-dihydro-2H-benzo[e][1,2]oxaborinine-8-carboxylic acid] | 32 to 64 µg/mL | < 0.125 µg/mL | 32 to 64 µg/mL | > 128 µg/mL | < 0.25 µg/mL | 0.5 to 1 µg/mL | 0.5 to 1 µg/mL | < 0.25 µg/mL | 2 to 4 µg/mL | 8 to 16 µg/mL | – | –
CCN1C[C@H](C)N(C(=O)NC(C(=O)N[C@H]2Cc3ccc(F)c(C(=O)O)c3OB2O)c2ccc(O)c(O)c2Cl)C(=O)C1=O (stereo partly drawn) [Example 206, (3R)-3-(2-(2-chloro-3,4-dihydroxyphenyl)-2-((S)-4-ethyl-6-methyl-2,3-dioxopiperazine-1-carboxamido)acetamido)-7-fluoro-2-hydroxy-3,4-dihydro-2H-benzo[e][1,2]oxaborinine-8-carboxylic acid] | 2 to 4 µg/mL | 4 to 8 µg/mL (≈ 6.59 to 13.2 µM) | < 0.25 µg/mL | 2 to 4 µg/mL | < 0.25 µg/mL | < 0.25 µg/mL | 0.5 to 1 µg/mL | < 0.25 µg/mL | < 0.25 µg/mL | 0.5 to 1 µg/mL | – | –
CCN1C[C@H](C)N(C(=O)NC(C(=O)N[C@H]2Cc3ccc(F)c(C(=O)O)c3OB2O)c2ncc(O)cc2F)C(=O)C1=O (stereo partly drawn) [Example 208, (3R)-3-(2-((S)-4-ethyl-6-methyl-2,3-dioxopiperazine-1-carboxamido)-2-(3-fluoro-5-hydroxypyridin-2-yl)acetamido)-7-fluoro-2-hydroxy-3,4-dihydro-2H-benzo[e][1,2]oxaborinine-8-carboxylic acid] | 32 to 64 µg/mL | 4 to 8 µg/mL (≈ 6.95 to 13.9 µM) | > 128 µg/mL | > 128 µg/mL | < 0.25 µg/mL | 2 to 4 µg/mL | 2 to 4 µg/mL | < 0.25 µg/mL | 32 to 64 µg/mL | 8 to 16 µg/mL | – | –
CCN1CCN(C(=O)NC(C(=O)N[C@H]2Cc3cccc(C(=O)O)c3OB2O)c2ccc(S(N)(=O)=O)c(F)c2)C(=O)C1=O (stereo partly drawn) [Example 210, (3R)-3-(2-(4-ethyl-2,3-dioxopiperazine-1-carboxamido)-2-(3-fluoro-4-sulfamoylphenyl)acetamido)-2-hydroxy-3,4-dihydro-2H-benzo[e][1,2]oxaborinine-8-carboxylic acid] | > 128 µg/mL | 4 to 8 µg/mL (≈ 6.61 to 13.2 µM) | > 128 µg/mL | > 128 µg/mL | 0.5 to 1 µg/mL | 2 to 4 µg/mL | 2 to 4 µg/mL | < 0.25 µg/mL | 2 to 4 µg/mL | 32 to 64 µg/mL | – | –
CCN1CCN(C(=O)NC(C(=O)N[C@H]2Cc3cccc(C(=O)O)c3OB2O)c2ccc(C(=O)O)cc2)C(=O)C1=O (stereo partly drawn) [Example 212, (3R)-3-(2-(4-carboxyphenyl)-2-(4-ethyl-2,3-dioxopiperazine-1-carboxamido)acetamido)-2-hydroxy-3,4-dihydro-2H-benzo[e][1,2]oxaborinine-8-carboxylic acid] | > 128 µg/mL | 0.25 to 0.5 µg/mL (≈ 0.453 to 0.905 µM) | – | – | < 0.25 µg/mL | 8 to 16 µg/mL | 2 to 4 µg/mL | < 0.25 µg/mL | 8 to 16 µg/mL | 32 to 64 µg/mL | > 128 µg/mL | 32 to 64 µg/mL
